Values quoted from earlier work, collected in patent US20130078304A1, “CONTROLLED RELEASE FORMULATION FOR TREATING SLEEP DISORDERS” (TAIWAN BIOTECH CO., LTD., priority 2011, published 2013).

Columns and labels:
[1] = target: T1, benzodiazepine (BZ1) receptors (Homo sapiens, UniProt P14867+P18507)
T1 sequence (P14867 28-456): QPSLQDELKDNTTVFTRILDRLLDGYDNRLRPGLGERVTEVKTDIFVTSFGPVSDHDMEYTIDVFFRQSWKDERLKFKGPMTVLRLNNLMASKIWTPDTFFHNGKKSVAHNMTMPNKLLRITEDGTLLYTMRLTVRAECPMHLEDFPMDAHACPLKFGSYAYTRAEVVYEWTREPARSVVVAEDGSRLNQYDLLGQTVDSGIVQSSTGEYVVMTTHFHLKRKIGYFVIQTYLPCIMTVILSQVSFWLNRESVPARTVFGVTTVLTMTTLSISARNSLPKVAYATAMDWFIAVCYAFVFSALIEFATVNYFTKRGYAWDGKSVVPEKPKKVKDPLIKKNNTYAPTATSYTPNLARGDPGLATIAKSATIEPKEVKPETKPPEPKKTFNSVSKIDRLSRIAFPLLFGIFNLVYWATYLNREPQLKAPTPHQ
T1 sequence (P18507 40-467 limits assumed): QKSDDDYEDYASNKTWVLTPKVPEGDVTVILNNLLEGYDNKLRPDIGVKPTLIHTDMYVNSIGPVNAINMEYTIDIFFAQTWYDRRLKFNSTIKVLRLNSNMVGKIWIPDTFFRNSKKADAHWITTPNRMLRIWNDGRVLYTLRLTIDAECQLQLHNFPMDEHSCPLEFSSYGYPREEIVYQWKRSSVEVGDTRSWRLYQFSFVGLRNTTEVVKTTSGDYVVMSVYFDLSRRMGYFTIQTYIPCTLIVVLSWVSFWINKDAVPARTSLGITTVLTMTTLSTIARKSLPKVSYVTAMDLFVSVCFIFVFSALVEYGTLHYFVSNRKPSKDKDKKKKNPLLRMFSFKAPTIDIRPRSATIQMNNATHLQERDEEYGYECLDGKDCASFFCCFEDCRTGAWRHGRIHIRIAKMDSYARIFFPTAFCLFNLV
T1 sequence (P47870 25-512 partner limits assumed): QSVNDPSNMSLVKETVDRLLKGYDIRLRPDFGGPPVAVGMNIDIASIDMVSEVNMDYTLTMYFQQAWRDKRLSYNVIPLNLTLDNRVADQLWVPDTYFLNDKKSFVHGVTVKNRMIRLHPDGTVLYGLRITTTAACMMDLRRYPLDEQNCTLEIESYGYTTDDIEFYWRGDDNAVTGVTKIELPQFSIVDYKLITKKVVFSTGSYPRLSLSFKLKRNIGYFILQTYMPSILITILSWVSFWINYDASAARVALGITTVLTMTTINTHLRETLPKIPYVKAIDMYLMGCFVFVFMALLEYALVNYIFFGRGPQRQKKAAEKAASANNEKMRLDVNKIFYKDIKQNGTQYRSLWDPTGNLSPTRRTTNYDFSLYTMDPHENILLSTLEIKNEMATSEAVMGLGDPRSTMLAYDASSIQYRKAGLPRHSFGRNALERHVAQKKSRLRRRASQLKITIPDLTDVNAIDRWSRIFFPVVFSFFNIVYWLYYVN

In the case of `CCN(C(C)=O)c1cccc(-c2ccnc3c(C#N)cnn23)c1` [Zaleplon, N-[3-(3-cyanopyrazolo-[1,5-a]-pyrimidin-7-yl)-phenyl]-N-ethyl acetamide], the “binding to the BZ1 receptor” value [1] is given as “more weakly bound to the receptor than is Zolpidem” and the “solubility in aqueous media” value is given as “poorly soluble”.
